Experimental data as given in patent US20250136578A1 (Kolm Therapeutics Inc., priority 2023, published 2025).

How the values were obtained:
[1] = target: AR / CBP ternary complex (Homo sapiens, UniProt P10275+Q92793); test: Ternary complex formation assay (sandwich ELISA, AR capture, CBP antibody detection) in VCaP cell lysates; type: cell-based; details: treated 1.5 hours, rabbit CBP or p300 antibody detection, average, read-out: Average Ternary Complex
Outline: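 VCaP cells in 5% charcoal-stripped FBS were cultured ≥3 days and then given bifunctional compound for 1.5 h. Lysates went onto AR-antibody-coated plates. Bound CBP (or p300) was detected with a rabbit antibody plus HRP anti-rabbit, using QuantaRed chemifluorescence (ex 570/em 585) read immediately, at 5 min and at 15 min.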

[2] = tested on: VCaP cells; test: VCaP growth inhibition assay (CTG); type: cell-based; details: Homo sapiens, 216 h, 30 pM R1881, 9 days
Outline: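 VCaP cells in phenol red-free DMEM with 5% charcoal-stripped serum were stimulated with 30 pM R1881 (final) and treated with compound from 100 nM to 10 fM final (1:5 dilutions) for 9 days at 37 °C. Viability was read by CellTiter-Glo luminescence, and IC50 came from 4-parameter logistic fits.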

AR / CBP ternary complex, sequence (P10275 whole entry): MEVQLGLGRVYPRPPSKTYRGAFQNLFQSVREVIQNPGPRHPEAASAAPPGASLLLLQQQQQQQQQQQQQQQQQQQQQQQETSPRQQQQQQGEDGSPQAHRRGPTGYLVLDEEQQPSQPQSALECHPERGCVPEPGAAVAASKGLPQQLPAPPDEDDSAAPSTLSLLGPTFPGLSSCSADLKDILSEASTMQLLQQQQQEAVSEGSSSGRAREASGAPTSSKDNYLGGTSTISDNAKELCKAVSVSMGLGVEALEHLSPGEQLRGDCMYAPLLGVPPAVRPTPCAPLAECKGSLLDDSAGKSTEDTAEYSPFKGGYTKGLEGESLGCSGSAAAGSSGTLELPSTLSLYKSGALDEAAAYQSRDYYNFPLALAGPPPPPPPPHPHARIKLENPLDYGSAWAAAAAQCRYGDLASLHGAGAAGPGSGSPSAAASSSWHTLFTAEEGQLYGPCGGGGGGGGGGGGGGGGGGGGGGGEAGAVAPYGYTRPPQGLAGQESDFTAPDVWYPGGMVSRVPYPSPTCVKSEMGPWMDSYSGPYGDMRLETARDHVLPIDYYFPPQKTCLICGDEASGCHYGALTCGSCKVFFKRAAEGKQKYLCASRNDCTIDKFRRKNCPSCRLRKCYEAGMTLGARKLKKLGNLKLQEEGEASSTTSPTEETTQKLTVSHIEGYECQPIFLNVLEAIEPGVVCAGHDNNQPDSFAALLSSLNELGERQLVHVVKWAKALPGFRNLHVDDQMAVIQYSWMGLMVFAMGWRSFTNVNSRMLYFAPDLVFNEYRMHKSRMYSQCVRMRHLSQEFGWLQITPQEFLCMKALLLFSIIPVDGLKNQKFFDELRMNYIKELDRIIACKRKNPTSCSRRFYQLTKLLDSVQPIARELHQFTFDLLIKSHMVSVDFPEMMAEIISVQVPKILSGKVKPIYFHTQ
AR / CBP ternary complex, sequence (Q92793 2-2442): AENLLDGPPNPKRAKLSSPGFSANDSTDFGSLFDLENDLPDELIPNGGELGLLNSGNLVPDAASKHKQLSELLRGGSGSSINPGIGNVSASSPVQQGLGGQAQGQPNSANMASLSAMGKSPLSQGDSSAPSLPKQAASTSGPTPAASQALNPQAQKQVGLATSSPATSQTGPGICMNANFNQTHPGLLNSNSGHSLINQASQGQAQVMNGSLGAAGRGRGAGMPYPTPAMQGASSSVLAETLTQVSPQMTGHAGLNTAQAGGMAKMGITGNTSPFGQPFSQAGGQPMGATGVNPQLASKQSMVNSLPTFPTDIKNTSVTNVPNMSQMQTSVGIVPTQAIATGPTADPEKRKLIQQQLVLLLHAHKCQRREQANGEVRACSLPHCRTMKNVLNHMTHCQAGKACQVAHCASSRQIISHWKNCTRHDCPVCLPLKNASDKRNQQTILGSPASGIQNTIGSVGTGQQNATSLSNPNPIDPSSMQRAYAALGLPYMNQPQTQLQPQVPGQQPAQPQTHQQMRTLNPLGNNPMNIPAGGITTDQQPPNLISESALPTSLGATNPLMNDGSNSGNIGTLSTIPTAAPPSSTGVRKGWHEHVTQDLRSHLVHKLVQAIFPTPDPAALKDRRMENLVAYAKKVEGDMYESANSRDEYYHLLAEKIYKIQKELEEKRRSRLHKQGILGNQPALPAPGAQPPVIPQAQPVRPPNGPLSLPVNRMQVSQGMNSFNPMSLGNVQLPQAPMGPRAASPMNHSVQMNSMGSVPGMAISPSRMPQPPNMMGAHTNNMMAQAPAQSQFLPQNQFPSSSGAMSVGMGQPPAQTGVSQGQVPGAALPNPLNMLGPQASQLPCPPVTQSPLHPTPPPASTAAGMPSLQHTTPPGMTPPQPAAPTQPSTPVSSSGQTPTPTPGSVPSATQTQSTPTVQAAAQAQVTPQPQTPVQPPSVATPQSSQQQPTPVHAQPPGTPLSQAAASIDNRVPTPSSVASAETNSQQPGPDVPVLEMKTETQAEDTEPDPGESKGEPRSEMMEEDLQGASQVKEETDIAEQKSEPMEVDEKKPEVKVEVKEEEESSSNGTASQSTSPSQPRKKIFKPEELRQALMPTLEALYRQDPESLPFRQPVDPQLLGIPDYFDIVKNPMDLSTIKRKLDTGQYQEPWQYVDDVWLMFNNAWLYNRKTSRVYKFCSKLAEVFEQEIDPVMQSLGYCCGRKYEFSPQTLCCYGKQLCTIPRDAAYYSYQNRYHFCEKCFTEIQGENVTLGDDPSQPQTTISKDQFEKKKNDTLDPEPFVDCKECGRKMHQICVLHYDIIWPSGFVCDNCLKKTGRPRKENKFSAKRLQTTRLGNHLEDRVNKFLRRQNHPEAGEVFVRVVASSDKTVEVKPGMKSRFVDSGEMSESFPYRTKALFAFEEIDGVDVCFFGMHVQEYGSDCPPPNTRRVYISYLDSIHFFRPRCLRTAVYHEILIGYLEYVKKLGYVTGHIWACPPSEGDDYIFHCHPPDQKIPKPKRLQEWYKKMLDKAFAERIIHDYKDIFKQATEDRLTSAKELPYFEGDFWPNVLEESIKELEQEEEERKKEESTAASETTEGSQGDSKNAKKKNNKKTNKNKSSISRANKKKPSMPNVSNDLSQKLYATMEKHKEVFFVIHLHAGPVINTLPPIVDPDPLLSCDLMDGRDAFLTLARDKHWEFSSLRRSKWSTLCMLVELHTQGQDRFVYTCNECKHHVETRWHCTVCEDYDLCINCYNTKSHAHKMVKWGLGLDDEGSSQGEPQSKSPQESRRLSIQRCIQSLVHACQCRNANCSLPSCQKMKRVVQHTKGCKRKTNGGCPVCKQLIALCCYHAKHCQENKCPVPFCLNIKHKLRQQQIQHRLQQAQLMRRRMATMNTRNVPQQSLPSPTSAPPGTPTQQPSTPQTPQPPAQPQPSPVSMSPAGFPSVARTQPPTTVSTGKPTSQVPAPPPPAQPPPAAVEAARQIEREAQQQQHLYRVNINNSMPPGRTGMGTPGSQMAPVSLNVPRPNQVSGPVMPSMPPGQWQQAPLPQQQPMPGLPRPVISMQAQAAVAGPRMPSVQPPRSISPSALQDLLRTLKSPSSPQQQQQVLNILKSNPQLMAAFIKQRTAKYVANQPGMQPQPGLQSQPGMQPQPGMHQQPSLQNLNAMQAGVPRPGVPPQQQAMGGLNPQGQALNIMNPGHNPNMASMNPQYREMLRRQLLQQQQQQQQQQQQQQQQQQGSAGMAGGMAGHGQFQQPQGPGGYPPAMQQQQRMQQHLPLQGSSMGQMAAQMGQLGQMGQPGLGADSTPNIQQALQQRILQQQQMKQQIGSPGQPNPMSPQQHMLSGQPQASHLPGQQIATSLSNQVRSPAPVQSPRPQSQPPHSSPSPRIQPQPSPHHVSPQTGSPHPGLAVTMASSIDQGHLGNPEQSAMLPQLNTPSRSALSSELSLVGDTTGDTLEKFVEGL

SMILES	EC50 [1] [nM]	IC50 [2] [nM]
Cn1c(=O)sc2ccc(N3CCCc4cc(-c5ccc(CCC6CCN(c7ccc(C(=O)N[C@H]8CC[C@H](Oc9ccc(C#N)c(Cl)c9)CC8)nn7)CC6)nc5)c(C(F)F)cc43)cc21 [Compound 56, N-[4-(3-chloro-4-cyano-phenoxy)cyclohexyl]-6-[4-[2-[5-[7-(difluoromethyl)-1-(3-methyl-2-oxo-1,3-benzothiazol-5-yl)-3,4-dihydro-2H-quinolin-6-yl]-2-pyridyl]ethyl]-1-piperidyl]pyridazine-3-carboxamide]	1 to 10	> 100
Cn1c(=O)sc2ccc(N3CCCc4cc(-c5ccc(CCC6CCN(c7ccc(C(=O)N[C@H]8CC[C@H](Oc9ccc(C#N)c(Cl)c9)CC8)nn7)CC6)nc5)ncc43)cc21 [Compound 57, N-[4-(3-chloro-4-cyano-phenoxy)cyclohexyl]-6-[4-[2-[5-[1-(3-methyl-2-oxo-1,3-benzothiazol-5-yl)-3,4-dihydro-2H-1,7-naphthyridin-6-yl]-2-pyridyl]ethyl]-1-piperidyl]pyridazine-3-carboxamide]	< 1	1 to 100
CN1C(=O)CCc2cc(-c3cccc4cc(-c5ccc(CCC6CCN(c7ccc(C(=O)N[C@H]8CC[C@H](Oc9ccc(C#N)c(Cl)c9)CC8)nn7)CC6)nc5)ncc34)ccc21 [Compound 58, N-[4-(3-chloro-4-cyano-phenoxy)cyclohexyl]-6-[4-[2-[5-[8-(1-methyl-2-oxo-3,4-dihydroquinolin-6-yl)-3-isoquinolyl]-2-pyridyl]ethyl]-1-piperidyl]pyridazine-3-carboxamide]	10 to 100	> 100
CN1C(=O)CCc2cc(N3CCCc4cc(-c5ccc(CCC6CCN(c7ccc(C(=O)N[C@H]8CC[C@H](Oc9ccc(C#N)c(Cl)c9)CC8)nn7)CC6)nc5)c(C(F)F)cc43)ccc21 [Compound 59, N-[4-(3-chloro-4-cyano-phenoxy)cyclohexyl]-6-[4-[2-[5-[7-(difluoromethyl)-1-(1-methyl-2-oxo-3,4-dihydroquinolin-6-yl)-3,4-dihydro-2H-quinolin-6-yl]-2-pyridyl]ethyl]-1-piperidyl]pyridazine-3-carboxamide]	> 100	> 100
CN1C(=O)CCc2cc(N3CCCc4cc(-c5ccc(CCC6CCN(c7ccc(C(=O)N[C@H]8CC[C@H](Oc9ccc(C#N)c(Cl)c9)CC8)nn7)CC6)nc5)ncc43)ccc21 [Compound 60, N-[4-(3-chloro-4-cyano-phenoxy)cyclohexyl]-6-[4-[2-[5-[1-(1-methyl-2-oxo-3,4-dihydroquinolin-6-yl)-3,4-dihydro-2H-1,7-naphthyridin-6-yl]-2-pyridyl]ethyl]-1-piperidyl] pyridazine-3-carboxamide]	> 100	> 100
CC(=O)N1CCc2c(c(N3CCCc4cc(C#N)ccc43)nn2C2CCN(C(=O)C3CCN(c4ccc(C(=O)N[C@H]5CC[C@H](Oc6ccc(C#N)c(Cl)c6)CC5)nn4)CC3)CC2)C1 [Compound 61, 6-[4-[4-[5-acetyl-3-(6-cyano-3,4-dihydro-2H-quinolin-1-yl)-6,7-dihydro-4H-pyrazolo[4,3-c]pyridin-1-yl]piperidine-1-carbonyl]-1-piperidyl]-N-[4-(3-chloro-4-cyano-phenoxy)cyclohexyl]pyridazine-3-carboxamide]	< 1	≤ 0.1
CC(=O)N1CCc2c(c(N3CCCc4ccc(C(F)F)cc43)nn2C2CCN(C(=O)C3CCN(c4ccc(C(=O)N[C@H]5CC[C@H](Oc6ccc(C#N)c(Cl)c6)CC5)nn4)CC3)CC2)C1 [Compound 62, 6-[4-[4-[5-acetyl-3-[7-(difluoromethyl)-3,4-dihydro-2H-quinolin-1-yl]-6,7-dihydro-4H-pyrazolo[4,3-c]pyridin-1-yl]piperidine-1-carbonyl]-1-piperidyl]-N-[4-(3-chloro-4-cyano-phenoxy)cyclohexyl]pyridazine-3-carboxamide]	< 1	≤ 0.1
CC(=O)N1CCc2c(c(-c3cccc4cc(-c5cnn(CCOC6CC7(C6)CN(c6ccc(C(=O)N[C@H]8CC[C@H](Oc9ccc(C#N)c(Cl)c9)CC8)nn6)C7)c5)ncc34)nn2C2CCOCC2)C1 [Compound 63, 6-[6-[2-[4-[8-(5-acetyl-1-tetrahydropyran-4-yl-6,7-dihydro-4H-pyrazolo[4,3-c]pyridin-3-yl)-3-isoquinolyl]pyrazol-1-yl]ethoxy]-2-azaspiro[3.3]heptan-2-yl]-N-[4-(3-chloro-4-cyano-phenoxy)cyclohexyl]pyridazine-3-carboxamide]	< 1	0.1 to 1
CC(=O)N1CCc2c(c(-c3cccc4cc(-c5cnn(CCOC6CC7(C6)CN(c6ccc(C(=O)N[C@H]8CC[C@H](Oc9ccc(C#N)c(Cl)c9)CC8)nn6)C7)c5)ncc34)nn2C)C1 [Compound 64, 6-[6-[2-[4-[8-(5-acetyl-1-methyl-6,7-dihydro-4H-pyrazolo[4,3-c]pyridin-3-yl)-3-isoquinolyl]pyrazol-1-yl]ethoxy]-2-azaspiro[3.3]heptan-2-yl]-N-[4-(3-chloro-4-cyano-phenoxy)cyclohexyl]pyridazine-3-carboxamide]	1 to 10	0.1 to 1
CC(=O)N1CCc2c(c(-c3cccc4cc(-c5cnn(CCOC6CCN(c7ccc(C(=O)N[C@H]8CC[C@H](Oc9ccc(C#N)c(Cl)c9)CC8)nn7)CC6)c5)ncc34)nn2C)C1 [Compound 65, 6-[4-[2-[4-[8-(5-acetyl-1-methyl-6,7-dihydro-4H-pyrazolo[4,3-c]pyridin-3-yl)-3-isoquinolyl]pyrazol-1-yl]ethoxy]-1-piperidyl]-N-[4-(3-chloro-4-cyano-phenoxy)cyclohexyl]pyridazine-3-carboxamide]	< 1	≤ 0.1
CC(=O)N1CCc2c(c(N3CCCc4cc(-c5cnn(C)c5)ncc43)nn2C2CCN(CC3CCN(c4ccc(C(=O)N[C@H]5CC[C@H](Oc6ccc(C#N)c(Cl)c6)CC5)nn4)CC3)CC2)C1 [Compound 66, rac-6-(4-((4-(5-acetyl-3-(6-(1-methyl-1H-pyrazol-4-yl)-3,4-dihydro-1,7-naphthyridin-1(2H)-yl)-4,5,6,7-tetrahydro-1H-pyrazolo[4,3-c]pyridin-1-yl)piperidin-1-yl)methyl)piperidin-1-yl)-N-((1r,4r)-4-(3-chloro-4-cyanophenoxy)cyclohexyl)pyridazine-3-carboxamide]	< 1	0.1 to 1
CC(=O)N1CCc2c(c(N3CCCc4cc(-c5cnn(C)c5)ncc43)nn2C2CCN(C(=O)C3CCN(c4ccc(C(=O)N[C@H]5CC[C@H](Oc6ccc(C#N)c(Cl)c6)CC5)nn4)CC3)CC2)C1 [Compound 67, 6-[4-[4-[5-acetyl-3-[6-(1-methylpyrazol-4-yl)-3,4-dihydro-2H-1,7-naphthyridin-1-yl]-6,7-dihydro-4H-pyrazolo[4,3-c]pyridin-1-yl]piperidine-1-carbonyl]-1-piperidyl]-N-[4-(3-chloro-4-cyano-phenoxy)cyclohexyl]pyridazine-3-carboxamide]	< 1	0.1 to 1
CC(=O)N1CCc2c(c(N3CCCc4cc(C#N)ncc43)nn2C2CCN(CC3CCN(c4ccc(C(=O)N[C@H]5CC[C@H](Oc6ccc(C#N)c(Cl)c6)CC5)nn4)CC3)CC2)C1 [Compound 68, 6-[4-[[4-[5-acetyl-3-(6-cyano-3,4-dihydro-2H-1,7-naphthyridin-1-yl)-6,7-dihydro-4H-pyrazolo[4,3-c]pyridin-1-yl]-1-piperidyl]methyl]-1-piperidyl]-N-[4-(3-chloro-4-cyano-phenoxy)cyclohexyl]pyridazine-3-carboxamide]	< 1	≤ 0.1
CC(=O)N1CCc2c(c(N3CCCc4cc(C#N)ncc43)nn2C2CCN(C(=O)C3CCN(c4ccc(C(=O)N[C@H]5CC[C@H](Oc6ccc(C#N)c(Cl)c6)CC5)nn4)CC3)CC2)C1 [Compound 69, 6-[4-[4-[5-acetyl-3-(6-cyano-3,4-dihydro-2H-1,7-naphthyridin-1-yl)-6,7-dihydro-4H-pyrazolo[4,3-c]pyridin-1-yl]piperidine-1-carbonyl]-1-piperidyl]-N-[4-(3-chloro-4-cyano-phenoxy)cyclohexyl]pyridazine-3-carboxamide]	< 1	≤ 0.1
CC(=O)N1CCc2c(c(-c3cccc4nc(-c5cnn(CCC6CCN(c7ccc(C(=O)N[C@H]8CC[C@H](Oc9ccc(C#N)c(Cl)c9)CC8)nn7)CC6)c5)ncc34)nn2C2CCOCC2)C1 [Compound 70]	< 1	0.1 to 1
CC(=O)N1CCc2c(c(N3CCCc4nc(-c5ccc(CCC6CCN(c7ccc(C(=O)N[C@H]8CC[C@H](Oc9ccc(C#N)c(Cl)c9)CC8)nn7)CC6)nc5)ncc43)nn2C2CCOCC2)C1 [Compound 72, 6-[4-[2-[5-[5-(5-acetyl-1-tetrahydropyran-4-yl-6,7-dihydro-4H-pyrazolo[4,3-c]pyridin-3-yl)-7,8-dihydro-6H-pyrido[3,2-d]pyrimidin-2-yl]-2-pyridyl]ethyl]-1-piperidyl]-N-[4-(3-chloro-4-cyano-phenoxy)cyclohexyl]pyridazine-3-carboxamide]	< 1	0.1 to 1
CC(=O)N1CCc2c(c(-c3cccc4nc(-c5ccc(CCC6CCN(c7ccc(C(=O)N[C@H]8CC[C@H](Oc9ccc(C#N)c(Cl)c9)CC8)nn7)CC6)nc5)ncc34)nn2C2CCOCC2)C1 [Compound 73, 6-[4-[2-[5-[5-(5-acetyl-1-tetrahydropyran-4-yl-6,7-dihydro-4H-pyrazolo[4,3-c]pyridin-3-yl)quinazolin-2-yl]-2-pyridyl]ethyl]-1-piperidyl]-N-[4-(3-chloro-4-cyano-phenoxy)cyclohexyl]pyridazine-3-carboxamide]	< 1	≤ 0.1
